Experimental data: US9187477B2, “Azabenzimidazole derivatives” (Boehringer Ingelheim International GmbH, priority 2013, dated 2015)

How the values were obtained:
[1] = Metabolic stability: metabolic degradation with pooled human liver microsomes; type: in vitro ADME; conditions: for c (control) (metabolic stability), remaining test compound after NADPH independent incubation: incubation without NADPH, after 2 hours, human liver microsomes; for t1/2 INVITRO: pooled human liver microsomes 1 mg/ml, 37° C., test compound 1 μM, NADPH 1 mM
Method: The metabolic degradation of the test compound is assayed at 37° C. with pooled human liver microsomes. The final incubation volume of 100 μl per time point contains TRIS buffer pH 7.6 at room temperature (0.1 M), magnesium chloride (5 mM), microsomal protein (1 mg/ml) and the test compound at a final concentration of 1 μM.
Following a short preincubation period at 37° C., the reactions were initiated by addition of beta-nicotinamide adenine dinucleotide phosphate, reduced form (NADPH, 1 mM) and terminated by transferring an aliquot into solvent after different time points.
Additionally, the NADPH-independent degradation was monitored in incubations without NADPH, terminated at 2 hour time point. The [%] remaining test compound after NADPH independent incubation is reflected by the parameter c (control) (metabolic stability). A c (control) (metabolic stability) value around 100% excludes cofactor independent activities (e.g. from esterases).
The quenched incubations are pelleted by centrifugation (10000 g, 5 min).
An aliquot of the supernatant is assayed by LC-MS/MS for the amount of parent compound. The half-life (t1/2 INVITRO) is determined by the slope of the semilogarithmic plot of the concentration-time profile.

[2] = target: AMPK complex 1 (containing alpha1beta1gamma1) (Homo sapiens (Human), UniProt Q13131+Q9Y478); assay: in vitro AMPK activation assay (ADP-Glo Kinase Assay); type: biochemical; conditions: AMPK alpha1beta1gamma1, ATP 30 μM, peptide 1 μM, 60 min, room temperature
Excerpt: Activated AMPK complex 1 (containing alpha1beta1gamma1) was obtained from baculovirus expression system. The gene encoding AMPK alpha1 was cloned into the pACG2T vector (BD Biosciences) to obtain a N-terminal Glutathion S transferase (GST)-fusion protein. The genes encoding AMPK beta1 and gamma1 were cloned into the p2Bac dual multiple cloning site vector (Invitrogen) with beta1 under the control of the p10 promoter and gamma1 under the control of the PH promoter. The transfer vectors containing AMPK were co-transfected individually with AcPNV BacMagic-3 DNA (EMD Millipore) in Sf9 cells and the recombinant baculoviruses were harvested after 5 days, followed by 3 rounds of amplification of the virus stock in Sf9 cells. AMPK (alpha1beta1gamma1) was expressed in High Five 5 cells by co-infection of recombinant alpha1 virus and recombinant beta1/gamma1 virus for 72 h at 27° C. Cells were harvested by centrifugation and lysed by 3 freeze/thaw cycles in PBS with 10% glycerol and protease inhibitor cocktail (Roche). After centrifugation AMPK a1b1g1 in the supernatant was captured by immobilized glutathione (GE Healthcare), impurities were washed away with PBS and AMPK alpha1beta1gamma1 was eluted with PBS containing 20 mM reduced gluthathione. The protein buffer was then exchanged to PBS with 10% glycerol and protein concentration was determined by UV absorbance.
The white 384-well Optiplates (cat. no. 6007299) were purchased from PerkinElmer. The V9101 ADP-Glo Kinase Assay and ultra pure ATP (V915A) was purchased from Promega. The substrate for AMPK (NH2-HMRSAMSGLHLVKRR_CONH2) was purchased from Upstate (12-355).
Compounds were tested in either serial dilutions or single dose concentrations. The serial compound dilutions were prepared in 100% DMSO automatically. The final DMSO concentration in the assay was 0.1%.
The Compound Stock Solutions were 10 mM in 100% DMSO. The compounds were solubilised at room temperature.
In the 384-well plates 1.25 ul of test compound in assay buffer was mixed with 1.25 ul of AMPK and 1.25 μl of the peptide (final concentration of 1 μM) and 1.25 μl of ATP (final concentration of 30 μM), both dissolved in assay buffer. This step was followed by an incubation time of 60 min. Then 5 μl of ADP Glo Reagent was added. This was followed by 40 min of incubation. Then 10 μl of Kinase Detection Reagent was admixed. The plates were sealed and after an incubation period of 30 min, the luminescence signal was measured in an Envision reader. All incubation steps were accomplished at room temperature.
Each assay microtiter plate contained wells with vehicle controls instead of compound (0.1% DMSO in water) as reference for the low signal (100% CTL, low signal), and wells with serial dilutions of AMP (final 30 μM) as reference for high signals.
The luminescence signal generated was proportional to the ADP concentration produced and was correlated with AMPK activity. The analysis of the data was performed by the calculation of the percentage of ATP consumption of AMPK in the presence of the test compound compared to the consumption of ATP in the presence of AMPK without compound. (RLU(sample)/RLU(low control))*100[RLU=relative luminescence units]
An activator of the AMPK enzyme gave values above 100% CTL.
EC50 values based on dose response curves are calculated with the XIFIT software using the 4 Parameter Logistic Model or Sigmoidal Dose-Response Model.

AMPK complex 1 (containing alpha1beta1gamma1), sequence (Q13131 whole entry, the tested form may be a part): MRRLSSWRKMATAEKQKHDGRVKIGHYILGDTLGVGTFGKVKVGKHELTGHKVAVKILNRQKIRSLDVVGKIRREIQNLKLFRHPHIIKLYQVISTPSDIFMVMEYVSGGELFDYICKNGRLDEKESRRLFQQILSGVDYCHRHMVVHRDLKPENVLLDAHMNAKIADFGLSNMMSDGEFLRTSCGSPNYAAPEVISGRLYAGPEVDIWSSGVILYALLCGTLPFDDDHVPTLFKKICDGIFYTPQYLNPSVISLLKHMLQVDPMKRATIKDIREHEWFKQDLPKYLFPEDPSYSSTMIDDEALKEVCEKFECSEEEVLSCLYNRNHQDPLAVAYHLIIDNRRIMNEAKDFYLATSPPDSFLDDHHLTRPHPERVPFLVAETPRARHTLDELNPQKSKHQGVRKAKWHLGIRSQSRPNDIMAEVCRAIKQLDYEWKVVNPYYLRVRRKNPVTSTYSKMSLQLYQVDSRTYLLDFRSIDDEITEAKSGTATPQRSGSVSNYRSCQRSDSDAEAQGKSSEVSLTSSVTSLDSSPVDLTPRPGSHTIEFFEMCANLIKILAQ
AMPK complex 1 (containing alpha1beta1gamma1), sequence (Q9Y478 whole entry, the tested form may be a part): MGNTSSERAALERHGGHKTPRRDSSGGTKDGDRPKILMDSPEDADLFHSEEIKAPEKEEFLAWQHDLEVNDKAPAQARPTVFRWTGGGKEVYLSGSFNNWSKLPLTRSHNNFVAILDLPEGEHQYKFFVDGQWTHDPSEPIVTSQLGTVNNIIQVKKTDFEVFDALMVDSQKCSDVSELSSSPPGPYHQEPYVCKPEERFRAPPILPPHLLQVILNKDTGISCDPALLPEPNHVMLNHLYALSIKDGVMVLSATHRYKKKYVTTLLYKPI
AMPK complex 1 (containing alpha1beta1gamma1), sequence (P54619 whole entry partner, the tested form may be a part): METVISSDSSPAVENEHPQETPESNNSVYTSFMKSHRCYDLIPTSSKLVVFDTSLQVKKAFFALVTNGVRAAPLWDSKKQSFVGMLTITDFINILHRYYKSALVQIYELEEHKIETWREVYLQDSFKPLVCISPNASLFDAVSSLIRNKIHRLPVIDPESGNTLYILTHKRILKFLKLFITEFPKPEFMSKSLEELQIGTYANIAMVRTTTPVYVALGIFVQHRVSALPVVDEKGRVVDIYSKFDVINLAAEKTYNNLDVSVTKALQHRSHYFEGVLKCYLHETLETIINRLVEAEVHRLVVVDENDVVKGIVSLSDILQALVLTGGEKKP

| SMILES | c (control) (metabolic stability), remaining test compound after NADPH independent incubation [1] [%] | t1/2 INVITRO [1] [min] | EC50 [2] [nM] |
| --- | --- | --- | --- |
| CCOC(=O)NC1CCN(c2ccc(-c3nc4[nH]c(O[C@@H]5CO[C@H]6[C@@H]5OC[C@H]6O)nc4cc3Cl)cc2)CC1 [Example 1, Ethyl 1-(4-(6-chloro-2-((3R,3aR,6R,6aR)-6-hydroxyhexahydrofuro[3,2-b]furan-3-yloxy)-3H-imidazo[4,5-b]pyridin-5-yl)phenyl)piperidin-4-ylcarbamate] | 100 | >130 | 1.2 |
| CN(C)C(=O)OC1CCN(c2ccc(-c3nc4[nH]c(O[C@@H]5CO[C@H]6[C@@H]5OC[C@H]6O)nc4cc3Cl)cc2)CC1 [Example 2, 1-(4-(6-Chloro-2-((3R,3aR,6R,6aR)-6-hydroxyhexahydrofuro[3,2-b]furan-3-yloxy)-3H-imidazo[4,5-b]pyridin-5-yl)phenyl)piperidin-4-yl dimethylcarbamate] | 109 | 111 | 32 |
| O=C(N[C@H]1CC[C@@H](c2ccc(-c3nc4[nH]c(O[C@@H]5CO[C@H]6[C@@H]5OC[C@H]6O)nc4cc3Cl)cc2)CC1)OC1CCCC1 [Example 3, Cyclopentyl (cis)-4-(4-(6-chloro-2-((3R,3aR,6R,6aR)-6-hydroxyhexahydrofuro[3,2-b]furan-3-yloxy)-3H-imidazo[4,5-b]pyridin-5-yl)phenyl)cyclohexylcarbamate] | 117 | 19 | 108 |
| CC(C)OC(=O)N[C@H]1CC[C@@H](c2ccc(-c3nc4[nH]c(O[C@@H]5CO[C@H]6[C@@H]5OC[C@H]6O)nc4cc3Cl)cc2)CC1 [Example 4, Isopropyl (cis)-4-(4-(6-chloro-2-((3R,3aR,6R,6aR)-6-hydroxyhexahydrofuro[3,2-b]furan-3-yloxy)-3H-imidazo[4,5-b]pyridin-5-yl)phenyl)cyclohexylcarbamate] | 103 | >130 | 12 |
| O=C(N[C@H]1CC[C@@H](c2ccc(-c3nc4[nH]c(O[C@@H]5CO[C@H]6[C@@H]5OC[C@H]6O)nc4cc3Cl)cc2)CC1)OC1CCOCC1 [Example 5, Tetrahydro-2H-pyran-4-yl (cis)-4-(4-(6-chloro-2-((3R,3aR,6R,6aR)-6-hydroxyhexahydrofuro[3,2-b]furan-3-yloxy)-3H-imidazo[4,5-b]pyridin-5-yl)phenyl)cyclohexylcarbamate] | 106 | 68 | 119 |
| O=C(O[C@H]1CC[C@H](c2ccc(-c3nc4[nH]c(O[C@@H]5CO[C@H]6[C@@H]5OC[C@H]6O)nc4cc3Cl)cc2)CC1)N1CCOCC1 [Example 6, (trans)-4-(4-(6-Chloro-2-((3R,3aR,6R,6aR)-6-hydroxyhexahydrofuro[3,2-b]furan-3-yloxy)-3H-imidazo[4,5-b]pyridin-5-yl)phenyl)cyclohexyl morpholine-4-carboxylate] | 98 | >130 | 6 |
| CCNC(=O)O[C@H]1CC[C@H](c2ccc(-c3nc4[nH]c(O[C@@H]5CO[C@H]6[C@@H]5OC[C@H]6O)nc4cc3Cl)cc2)CC1 [Example 7, (trans)-4-(4-(6-Chloro-2-((3R,3aR,6R,6aR)-6-hydroxyhexahydrofuro[3,2-b]furan-3-yloxy)-3H-imidazo[4,5-b]pyridin-5-yl)phenyl)cyclohexyl ethylcarbamate] | – | – | 468 |
| CC(C)NC(=O)O[C@H]1CC[C@H](c2ccc(-c3nc4[nH]c(O[C@@H]5CO[C@H]6[C@@H]5OC[C@H]6O)nc4cc3Cl)cc2)CC1 [Example 8, (trans)-4-(4-(6-Chloro-2-((3R,3aR,6R,6aR)-6-hydroxyhexahydrofuro[3,2-b]furan-3-yloxy)-3H-imidazo[4,5-b]pyridin-5-yl)phenyl)cyclohexyl isopropylcarbamate] | 102 | >130 | 339 |
| O=C(O[C@H]1CC[C@H](c2ccc(-c3nc4[nH]c(O[C@@H]5CO[C@H]6[C@@H]5OC[C@H]6O)nc4cc3Cl)cc2)CC1)N1CCCC1 [Example 9, (trans)-4-(4-(6-Chloro-2-((3R,3aR,6R,6aR)-6-hydroxyhexahydrofuro[3,2-b]furan-3-yloxy)-3H-imidazo[4,5-b]pyridin-5-yl)phenyl)cyclohexyl pyrrolidine-1-carboxylate] | 100 | >130 | 17 |
| O=C(O[C@H]1CC[C@@H](c2ccc(-c3nc4[nH]c(O[C@@H]5CO[C@H]6[C@@H]5OC[C@H]6O)nc4cc3Cl)cc2)CC1)N1CCOCC1 [Example 12, (cis)-4-(4-(6-Chloro-2-((3R,3aR,6R,6aR)-6-hydroxyhexahydrofuro[3,2-b]furan-3-yloxy)-3H-imidazo[4,5-b]pyridin-5-yl)phenyl)cyclohexyl morpholine-4-carboxylate] | – | – | 1310 |
| O=C(O[C@H]1CC[C@@H](c2ccc(-c3nc4[nH]c(O[C@@H]5CO[C@H]6[C@@H]5OC[C@H]6O)nc4cc3Cl)cc2)CC1)N1CCCC1 [Example 13, (cis)-4-(4-(6-Chloro-2-((3R,3aR,6R,6aR)-6-hydroxyhexahydrofuro[3,2-b]furan-3-yloxy)-3H-imidazo[4,5-b]pyridin-5-yl)phenyl)cyclohexyl pyrrolidine-1-carboxylate] | – | – | 2040 |
| CC(C)NC(=O)OC1CCN(c2ccc(-c3nc4[nH]c(O[C@@H]5CO[C@H]6[C@@H]5OC[C@H]6O)nc4cc3Cl)cc2)CC1 [Example 14, 1-(4-(6-Chloro-2-((3R,3aR,6R,6aR)-6-hydroxyhexahydrofuro[3,2-b]furan-3-yloxy)-3H-imidazo[4,5-b]pyridin-5-yl)phenyl)piperidin-4-yl isopropylcarbamate] | – | – | 578 |
| O=C(OC1CCN(c2ccc(-c3nc4[nH]c(O[C@@H]5CO[C@H]6[C@@H]5OC[C@H]6O)nc4cc3Cl)cc2)CC1)N1CCOCC1 [Example 15, 1-(4-(6-Chloro-2-((3R,3aR,6R,6aR)-6-hydroxyhexahydrofuro[3,2-b]furan-3-yloxy)-3H-imidazo[4,5-b]pyridin-5-yl)phenyl)piperidin-4-yl morpholine-4-carboxylate] | – | – | 133 |
| CC(C)OC(=O)NC1CCN(c2ccc(-c3nc4[nH]c(O[C@@H]5CO[C@H]6[C@@H]5OC[C@H]6O)nc4cc3Cl)cc2)CC1 [Example 16, Isopropyl 1-(4-(6-chloro-2-((3R,3aR,6R,6aR)-6-hydroxyhexahydrofuro[3,2-b]furan-3-yloxy)-3H-imidazo[4,5-b]pyridin-5-yl)phenyl)piperidin-4-ylcarbamate] | – | – | 290 |
